Consider one compound from US12564600B2, “System for enhancing therapeutic compliance of the anti-cancer compound E7766” (Eisai R&D Management Co., Ltd., priority 2019, dated 2026).

Series [1] can be described thus: Pharmacokinetics and excretion in bile duct-cannulated rat, single IV dose. The class given is in vivo, Sprague Dawley rats. As to conditions: IV 1 mg/kg, Mean SD. The protocol: (§1) Male bile duct-cannulated beagle dogs or Sprague Dawley rats (n=3) were given a single intravenous (IV) dose of Compound 1. Plasma, urine and bile samples were collected from the dogs, and blood, urine, bile and feces samples were collected from rats up to 48 hours post-dose. Blood samples were kept on wet ice after collection until centrifuged for separation of plasma. Urine samples were collected at intervals 0 to 4, 4 to 8, 8 to 24, and 24 to 48 hours post-dose into collection tubes on wet ice. Bile samples were collected at intervals 0 to 4, 4 to 8, 8 to 24, and 24 to 48 hours post-dose into collection tubes cooled via an ice pack. Feces samples for rats were collected over 0 to 24 hour interval. All samples were transferred into properly labeled tubes and stored at −70° C. until pending shipment to the bioanalytical facility. All samples were analyzed using LC-MS/MS and the pharmacokinetic parameters of Compound 1 were determined with Phoenix WinNonlin using non-compartmental analysis.
(§2) Data are shown as Mean SD. NC indicates Not Collected.

Series [2] in a line: Pharmacokinetics in wild-type mice with or without rifampin co-dose. The class given is in vivo, wild-type FVB male mice. The protocol:
Age-matched Oatp1a/1b cluster-knockout, OATP1B1- or OATP1B3-knockin mice humanized on the Oatp1a/1b-knockout background, and wild-type FVB male mice were purchased from Taconic Biosciences (Hudson, N.Y., USA). Mice were between 8 and 10 weeks of age (22-34 g) at the time of study. Compound 1 was administered at a dose of 0.5 mg/kg coadministered with either vehicle or rifampin (30 mg/kg). Blood and liver samples were collected at 0.083, 0.25, 0.5, 1, 1.5, 3, 6 hours. Plasma was isolated from blood samples by centrifugation. All samples were stored at −80° C. until bioanalysis.
Compound 1 was dosed via intravenous administration to WT, humanized, and KO mice. Blood, urine, and feces were collected from the animals over 6 hours. Blood spots were collected and expelled FTA™ DMPK-B DBS Card (GE Healthcare, Life Sciences, Whatman™) within the appropriate sample circle. Pharmacokinetics of Compound 1 in WT animals was also assessed after co-administration with rifampin. Liver samples were also collected from WT animals and frozen until analysis. All samples were analyzed using LC-MS/MS and the pharmacokinetics parameters of Compound 1 were determined with Phoenix WinNonlin using non-compartmental analysis.
FIG. 2A through 2C show an in vivo PK profile and elimination of Compound 1 with and without a co-dose of the Oatp/OATP inhibitor Rifampin in different mouse models.

A short description of series [3]: Pharmacokinetics and excretion in bile duct-cannulated dog, single IV dose. The settings on record: IV 0.075 mg/kg, up to 48 h, Mean SD. The class given is in vivo, beagle dogs. The protocol:
as §1, §2

In a further series the target is T1, OATP1B3 (Homo sapiens, UniProt Q9NPD5).
T1 construct: expressed in transfected cells; host or cells: HEK293-FT
T1 sequence (Q9NPD5 1-702): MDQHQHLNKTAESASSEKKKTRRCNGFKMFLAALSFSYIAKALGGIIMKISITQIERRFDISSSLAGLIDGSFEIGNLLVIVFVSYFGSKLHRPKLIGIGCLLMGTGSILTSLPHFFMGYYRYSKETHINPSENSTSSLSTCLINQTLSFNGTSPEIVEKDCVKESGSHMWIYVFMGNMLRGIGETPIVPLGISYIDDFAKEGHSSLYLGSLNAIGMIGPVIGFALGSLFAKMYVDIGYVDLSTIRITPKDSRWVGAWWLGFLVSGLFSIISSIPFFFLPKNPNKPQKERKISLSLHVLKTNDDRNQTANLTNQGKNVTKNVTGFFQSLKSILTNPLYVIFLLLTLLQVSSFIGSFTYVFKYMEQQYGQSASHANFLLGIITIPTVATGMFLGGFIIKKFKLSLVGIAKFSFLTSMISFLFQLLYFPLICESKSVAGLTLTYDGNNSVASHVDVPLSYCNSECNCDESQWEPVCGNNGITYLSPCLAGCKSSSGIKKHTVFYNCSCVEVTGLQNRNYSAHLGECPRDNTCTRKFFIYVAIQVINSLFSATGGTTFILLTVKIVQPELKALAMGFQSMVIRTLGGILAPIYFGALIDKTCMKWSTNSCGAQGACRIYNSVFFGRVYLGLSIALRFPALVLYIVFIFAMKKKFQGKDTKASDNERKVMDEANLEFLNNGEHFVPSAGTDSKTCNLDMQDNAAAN
Put plainly: Uptake in HEK293 cells overexpressing OATP1B3. It counts as in vitro ADME. The protocol: TransportoCells™ (Corning, N.Y., USA) expressing OATP2B1, NTCP, and HEK293-FT cells stably transfected with the vector containing OATP1B1 cDNA or OATP1B3 cDNA or empty vector were grown in a Dulbecoo's modified Eagle's medium fortified with 10% fetal calf serum and 2 mmol/L sodium butyrate (for NTCP only) in a humidified incubator at 37° C. and 5% CO2. Cells were harvested at 90% confluence and then seeded in poly-D-lysine-coated 24-well 24 h prior to transporter assay. Cells were washed twice and pre-incubated with 200 μL of pre-warmed Krebs-Henseleit buffer. After pre-incubation, cells were incubated with 3 or 10 μmol L-1 of Compound 1 in presence or absence of 100 μmol L-1 of inhibitors (Rifamycin SV for OATP2B1, Troglitazone for NTCP, Rifamycin for OATP1B1 and OATP1B3). The transport reaction was terminated by aspirating the buffer from the wells at designated time. After washing three times with 200 μL of ice-cold Krebs-Henseleit buffer, the cells were lysed and the resulting cellular lysates were analyzed by LC-MS/MS.
Concentration-dependent uptake of Compound 1 via OATP1B1 and OATP1B3 were conducted with a concentration range of 0.25-100 μmol L-1 under linear uptake. All experiments were run in triplicates.

Entries after “also recorded” stand apart in the source; their conditions may differ.

For the compound `O=[P@]1(S)OC[C@H]2O[C@@H]3[C@H](F)[C@@H]2O[P@](=O)(S)OC[C@H]2O[C@H]([C@H](F)[C@@H]2O1)n1cnc2c(ncnc21)NC/C=C/CNc1ncnc2c1ncn23` [Compound 1], the “% Ae, feces” value in series [1] (0 to 24 h) was 0.4 ± 0.2%. Moreover, the “% Ae, urine” value in series [1] (up to 48 h, 1 mg/kg) was 13.7 ± 2.8%. For the same compound, in series [2] (male, FVB, mouse, liver and plasma, with rifampin 30 mg/kg co-dosed, wild type mice, IV, read-out: decrease of Kp (liver/plasma) in the presence of Rifampin), the fold decrease of liver/plasma Kp with rifampin came out at 5. Further, the “decrease of biliary excretion on co-dosing rifampin” value in series [2] (mouse models of FIG. 2A-2C (wild type and OATP1Bs humanized), rifampin co-dose) is on record as 66-79%. The “increase of Cmax in the presence of rifampin” value in series [2] (wild type mice, IV) is “about 2 fold”. For the same compound, in series [2] (wild-type mice, 0.5 mg/kg IV, rifampin 30 mg/kg), the “increase in plasma exposure in the presence of rifampin” value is on record as 5.4 fold. In addition, in series [2] (wild-type mice, IV, rifampin co-administered), the “liver exposure (AUC) in the presence vs absence of rifampin” value was “did not change significantly; also recorded: comparable”. Besides, the “% Ae, bile” value in series [3] worked out at 87.9 ± 30.5%. At OATP1B3 (HEK293 cells overexpressing human OATP1B3), the “substrate of OATP1B3” value is “responsible for hepatic uptake; also recorded: substrate”. Further, on OATP1B3 (Simcyp input parameter, Table 3), the “Jmax (pmol/min/million cells), OATP1B3” value worked out at 24.39 pmol/min/million cells. Further, the Michaelis-Menten constant (Km) at OATP1B3 (human, HEK293-FT cells stably transfected with OATP1B3 cDNA, Simcyp input parameter, Table 3) amounted to 4 µM. Also, the “contribution of OATP1B3 versus OATP1B1 in hepatobiliary clearance” value on OATP1B3 (phenotyping studies) is “predominant contribution of OATP1B3 over OATP1B1”.

For orientation: Km means the concentration of substrate that gives half-maximal velocity.
